Reference: US20040063680A1, “Method of treating stroke” (priority 2003, published 2004)

melting point: 155 to 157 °C
SMILES: CC(C)S(=O)(=O)NCC(C)(F)c1ccc(-c2ccc(CC#N)cc2)cc1 (stereo not shown) [Example 9, 2-{4-[4-(1-fluoro-1-methyl-2-{[(methylethyl)sulfonyl]amino}ethyl)phenyl]phenyl}ethanenitrile]
